What all share (format): in vivo
The subject of assay [1] is Matricaria inodora (MATIN). The assay is described as follows: Post-emergence action against weeds, greenhouse pot test, Matricaria inodora. Particulars: for inhibition at 200 g/ha: 200 g of ai/ha; for inhibition at 600 g/ha: 600 g of ai/ha; for (7) % activity found: MATIN. The procedure: (§1) Seeds or rhizome pieces of mono- and dicotyledonous harmful and useful plants were placed in peat pots (diameter 4 cm) filled with sandy loam and then covered with soil. The pots were kept in a greenhouse under optimum conditions. In addition, harmful plants encountered in paddy rice cultivation were cultivated in pots with a water level 2 cm above the soil surface.
(§2) About three weeks after the start of the cultivation, the test plants were treated at the 2- to 3-leaf stage. The herbicides, formulated as powder or liquid concentrates, were, either alone or in the combinations according to the invention, sprayed in various dosages on to the green parts of the plants using an application rate of 600 l of water/ha (converted). For further cultivation of the plants, the pots were then again kept under optimum conditions in a greenhouse.
(§3) The visual scoring of the herbicidal effects was carried out in intervals up to 21 days after the treatment. Scoring was carried out in percent in comparison to the untreated control plants. 0%=no herbicidal activity, 100%=complete herbicidal activity=complete kill.
(§4) The percentages from the treatments with the herbicides alone (=individual application) and with the combinations according to the invention (=mixtures) were employed to calculate interactions using the method of Colby. When the observed efficacies of the mixtures exceed the formal sum of the values of the tests with individual applications, they also exceed the expected value according to Colby, which is calculated using the formula below (cf. S. R. Colby; in Weeds 15 (1967) pp. 20 to 22):
(§5) Here: • A, B=activity of components A and B in percent at a dosage of a and b g of ai/ha (=gramm of active substance per hectare), respectively. • E=expected value in % at a dosage of a+b g of ai/ha.

In assay [2] the test system is Amaranthus retroflexus (AMARE). Briefly: Post-emergence action against weeds, greenhouse pot test, Amaranthus retroflexus. Particulars: read-out: % activity found. The procedure:
as §1, §2, §3, §4, §5
(§6) The combinations according to the invention of herbicides from group (A) with herbicides from group (B) were tested on a broad spectrum of important harmful plants (weed grasses, broad-leaved weeds/Cyperaceae) and useful plants: Triticum aestivum (TRZAS), Stellaria media (STEME), Lolium multiflorum (LOLMU), Veronica persica (VERPE), Alopecurus myosuroides (ALOMY), Matricaria inodora (MATIN), Brassica napus (BRSNW), Viola tricolor (VIOTR), Avena fatua (AVEFA), Amaranthus retroflexus (AMARE), Zea mays (ZEAMX), Pharbitis purpurea (PHBPU), Setaria viridis (SETVI), Fallopia (ex Polygonum) convolvulus (POLCO), Echinochloa crus-gaffi (ECHCG), Abuthilon theophrasti (ABUTH), Cyperus esculentus (CYPES), Oryza sativa (ORYSA).
(§7) Of particular interest are the results shown in the tables (Tab.) below, where the following key is used: • (1) EPPO code (former Bayer code) for the treated plant (see above) • (2) Time of scoring: DAT (days after treatment) • (3) Component A tested (identifying number) • (4) Component B tested (identifying number) • (5) Dosage component A [g of ai/ha] • (6) Dosage component B [g of ai/ha] • (7) % activity found • (8) E value (calculated according to Colby; see above) • (9) Comments: “SYNERGY”=synergistic interaction (E value <% activity found); “SAFENING”=safener action on useful plant (E value >% activity found)

The next assay relates to Zea mays (ZEAMX). The assay is described as follows: Post-emergence action against weeds, greenhouse pot test, Zea mays. To be noted: for inhibition at 200 g/ha: 200 g of ai/ha. The procedure:
as §1, §2, §3, §4, §5, §6, §7

Assay [3] deals with Lolium multiflorum (LOLMU). Briefly: Post-emergence action against weeds, greenhouse pot test, Lolium multiflorum. Particulars: read-out: % activity found; for inhibition at 200 g/ha: 200 g of ai/ha; for inhibition at 600 g/ha: 600 g of ai/ha. As for the experimental part:
as §1, §2, §3, §4, §5, §6, §7

Assay [4] has as its system Cyperus esculentus (CYPES). Briefly: Post-emergence action against weeds, greenhouse pot test, Cyperus esculentus. As for the experimental part:
as §1, §2, §3, §4, §5

Assay [5] relates to Fallopia (ex Polygonum) convolvulus (POLCO). Briefly: Post-emergence action against weeds, greenhouse pot test, Fallopia convolvulus. As for the experimental part:
as §1, §2, §3, §4, §5, §6, §7

A further assay concerns Viola tricolor (VIOTR). The assay is described as follows: Post-emergence action against weeds, greenhouse pot test, Viola tricolor. To be noted: for inhibition at 200 g/ha: 200 g of ai/ha. As for the experimental part: as §1, §2, §3, §4, §5, §6, §7
The test system of a further assay is Veronica persica (VERPE). Briefly: Post-emergence action against weeds, greenhouse pot test, Veronica persica. To be noted: read-out: % activity found; for inhibition at 4 g/ha: 4 g of ai/ha; for inhibition at 12 g/ha: 12 g of ai/ha. As for the experimental part:
as §1, §2, §3, §4, §5, §6, §7

Assay [6] deals with Triticum aestivum (TRZAS). Briefly: Post-emergence action against weeds, greenhouse pot test, Triticum aestivum. Particulars: 240 h, read-out: % activity found. As for the experimental part: as §1, §2, §3, §4
(§8) Here: • A, B=activity of components A and B in percent at a dosage of a and b g of ai/ha (=gramm of active substance per hectare), respectively. • E=expected value in % at a dosage of a+b g of ai/ha. […]

Another assay relates to Setaria viridis (SETVI). Briefly: Post-emergence action against weeds, greenhouse pot test, Setaria viridis. To be noted: 504 h, read-out: % activity found. As for the experimental part: as §1, §2, §3, §4, §8
Setting [7] is: Tripleurospermum inodorum, post-emergence, 240 h, 10 DAT, read-out: % activity found.
[8] abbreviates: Tripleurospermum inodorum, post-emergence, 504 h, 21 DAT, read-out: % activity found.
Where [9] appears, read: Zea mays, post-emergence, 240 h, read-out: % activity found.
The mark [10] stands for this setting: Fallopia convolvulus, post-emergence, 504 h, read-out: % activity found.

Read-outs that look alike come from different tables or passages of the source.

With `CCOC1Oc2ccc(OS(C)(=O)=O)cc2C1(C)C` (racemic) [B-49, (±)-2-ethoxy-2,3-dihydro-3,3-dimethyl-5-benzofuranyl methanesulfonate], the inhibition at 200 g/ha amounted to 0% in [1] (setting [7]); 20% in [1] (setting [8]); 50% in assay [2] (504 h, 21 DAT, 200 g of ai/ha); 30% in the assay with Zea mays (ZEAMX) (Zea mays, post-emergence, 240 h, 10 DAT, read-out: % activity found); 0% in the assay on Zea mays (ZEAMX) (Zea mays, post-emergence, 504 h, 21 DAT, read-out: % activity found); 0% in assay [3] (240 h, 10 DAT). The inhibition at 200 g/ha in [3] (504 h, 21 DAT) came to 0%; in assay [5] (Fallopia convolvulus, post-emergence, 504 h, 21 DAT, 200 g of ai/ha, read-out: % activity found) it was 40%; in the assay on Viola tricolor (VIOTR) (Viola tricolor, post-emergence, 240 h, 10 DAT, read-out: % activity found) it was 0%; in the assay with Viola tricolor (VIOTR) (Viola tricolor, post-emergence, 504 h, 21 DAT, read-out: % activity found), 0%; in the assay on Veronica persica (VERPE) (504 h, 21 DAT, 200 g of ai/ha), 20%. The inhibition at 600 g/ha in assay [1] (setting [7]) turned out to be 0%; in assay [1] (setting [8]), 30%; in the assay with Zea mays (ZEAMX) (Zea mays, post-emergence, 240 h, 10 DAT, 600 g of ai/ha, read-out: % activity found), 40%; in assay [3] (240 h, 10 DAT), 10%; in [3] (504 h, 21 DAT), 0%; in assay [4] (Cyperus esculentus, post-emergence, 504 h, 21 DAT, 600 g of ai/ha, read-out: % activity found), 0%. In addition, the inhibition at 600 g/ha in assay [5] (Fallopia convolvulus, post-emergence, 504 h, 21 DAT, 600 g of ai/ha, read-out: % activity found) came to 50%; in the assay with Viola tricolor (VIOTR) (Viola tricolor, post-emergence, 504 h, 21 DAT, 600 g of ai/ha, read-out: % activity found), 0%.

Consider `CNC1=C(c2cccc(C(F)(F)F)c2)C(=O)C(c2ccccc2)O1` (racemic) [B-61, (±)-5-(methylamino)-2-phenyl-4-[3-(trifluoromethyl)phenyl]-3(2H)-furanone], for which the inhibition at 40 g/ha came to 30% in [6], 40% in the assay with Zea mays (ZEAMX) (setting [9]), 50% in [3] (240 h) and 40% in [3] (504 h). Besides, the “(7) % activity found” value in assay [1] (21 DAT, B-61 alone, dose (6) 40) is given as 50%; in [1] (21 DAT, B-61 alone, dose (6) 120), 50%; in assay [1] (21 DAT, Table 65, B-61 alone, dose (6) 40), 50%; in the assay on Zea mays (ZEAMX) (ZEAMX, 21 DAT, B-61 alone, dose (6) 120), 50%; in assay [4] (CYPES, 21 DAT, B-61 alone, dose (6) 40), 20%; in the assay with Viola tricolor (VIOTR) (VIOTR, 21 DAT, B-61 alone, dose (6) 120), 70%. In addition, the inhibition at 120 g/ha in the assay with Zea mays (ZEAMX) (setting [9]) turned out to be 50%.

With `CCS(=O)(=O)Oc1ccc2c(c1)C(C)(C)CO2` [B-9, 2,3-dihydro-3,3-dimethyl-5-benzofuranyl ethanesulfonate], the inhibition at 100 g/ha in assay [1] (Tripleurospermum inodorum, post-emergence, 504 h, read-out: % activity found) was determined as 50%; with Setaria viridis (SETVI), 40%; in the assay with Zea mays (ZEAMX) (setting [9]), 10%; in assay [5] (setting [10]) it was 0%; in the assay with Veronica persica (VERPE) (504 h) it was 0%. For the same molecule, the inhibition at 300 g/ha in the assay with Zea mays (ZEAMX) (setting [9]) was 20%; with Zea mays (ZEAMX) (Zea mays, post-emergence, 504 h, read-out: % activity found) it was 0%; in assay [3] (504 h) it was 0%; in assay [5] (setting [10]), 30%.

As for `COc1nc(OC)nc(C(=O)c2cccc(F)c2N(C)S(=O)(=O)C(F)F)n1` [A-1], the “(7) % activity found” value in [1] (21 DAT, A-1 alone, dose (5) 4) was 50%; in assay [1] (21 DAT, Table 65, A-1 alone, dose (5) 12), 60%. The inhibition at 4 g/ha in [1] (Tripleurospermum inodorum, post-emergence, 10/21 DAT, 4 g of ai/ha, read-out: % activity found) turned out to be 50%; in [2] (240 h, 10 DAT, 4 g of ai/ha), 70%; in the assay with Viola tricolor (VIOTR) (Viola tricolor, post-emergence, 240 h, 10 DAT, 4 g of ai/ha, read-out: % activity found), 20%; with Veronica persica (VERPE) (240 h, 10 DAT), 60%; in the assay with Veronica persica (VERPE) (504 h, 21 DAT), 30%. Moreover, the inhibition at 12 g/ha in assay [4] (Cyperus esculentus, post-emergence, 240 h, 10 DAT, 12 g of ai/ha, read-out: % activity found) was determined as 70%; in the assay with Veronica persica (VERPE) (240 h, 10 DAT), 60%; with Veronica persica (VERPE) (504 h, 21 DAT) it was 40%. In assay [5] (21 DAT, 12 g of ai/ha), the “% activity found” value is 75%.

These data come from patent US20100234226A1, “HERBICIDE COMBINATION COMPRISING DIMETHOXYTRIAZINYL-SUBSTITUTED DIFLUOROMETHANESULFONYLANILIDES” (BAYER CROPSCIENCE AG, priority 2008, published 2010).
